According to patent US20110045086A1, “Steroid Nebuliser Formulation” (BREATH LTD, priority 2008, published 2011):

How the values were obtained:
Format in all cases: physicochemical
[1] = storage at 20% relative humidity for 48 hours (DVS, DSC, PSD, SEM); settings: for Particle Size, cumulative distribution Q3 X10 / Particle Size, cumulative distribution Q3 X50 / Particle Size, cumulative distribution Q3 X90: dry Sympatec PSD, post-storage sample; for DSC trace of the stored sample / variation of particle size after storage (PSD): post-storage; for weight change during storage (DVS mass plot): storage at 20% RH for 48 hours
Description: In order to evaluate the effect of humidity on prolonged storage processed BDP hydrate was subjected to 20% relative humidity (RH) for 48 hours.
The sample recovered after storage was analysed by DSC, TGA, PSD and SEM.
In order to evaluate the effect of humidity on prolonged storage anhydrous BDP was subjected to 20% relative humidity (RH) for 48 hours. The pre-storage sample was characterized by TGA, DSC, PSD and SEM analysis.
The sample recovered after storage was analyzed by DSC, PSD and SEM.

[2] = dry Sympatec PSD analysis (particle size distribution); settings: for Particle Size, cumulative distribution Q3 X10 / Particle Size, cumulative distribution Q3 X50 / Particle Size, cumulative distribution Q3 X90: dry Sympatec PSD, after isolation / pre-storage sample
Text: Particle size or particle diameter as used herein can be suitably determined by laser diffraction based methods, for example as described in ISO Standard 13320-1. Laser diffraction particle sizing apparatus such as the Malvern Mastersizer 2000™ can be used.

[3] = microscope imaging / SEM of particles; settings: for largest particles or clusters observed (microscope imaging / SEM): after supercritical CO2 isolation; for particle size in suspension prior to isolation (microscope imaging): partially agglomerated particles, before supercritical CO2 isolation
[4] = after supercritical CO2 isolation

Row | Structure (SMILES) | stability on prolonged storage ([1]; 20% RH for 48 hours, compared with anhydrous BDP) | Particle Size, cumulative distribution Q3 X10 ([1]; 20% RH for 48 hours) [μ] | Particle Size, cumulative distribution Q3 X50 ([1]; 20% RH for 48 hours) [μ] | Particle Size, cumulative distribution Q3 X90 ([1]; 20% RH for 48 hours) [μ] | DSC trace of the stored sample ([1]; 20% RH for 48 hours) | variation of particle size after storage (PSD) ([1]; 20% RH for 48 hours) | time to steady state in DVS mass plot ([1]; storage at 20% RH) | weight change during storage (DVS mass plot) [1] | Particle Size, cumulative distribution Q3 X10 [2] [μ] | Particle Size, cumulative distribution Q3 X50 [2] [μ] | Particle Size, cumulative distribution Q3 X90 [2] [μ] | largest particles by dry Sympatec PSD analysis ([2]; after supercritical CO2 isolation, bimodal distribution) | largest particles or clusters observed (microscope imaging / SEM) [3] | particle size in suspension prior to isolation (microscope imaging) [3] | size of larger clusters or agglomerates by dry Sympatec PSD analysis [2, 4] [μm] | size of most particles by dry Sympatec PSD analysis [2, 4] [μm]
1 | CCC(=O)OCC(=O)[C@@]1(OC(=O)CC)[C@@H](C)C[C@H]2[C@@H]3CCC4=CC(=O)C=C[C@]4(C)[C@@]3(Cl)[C@@H](O)C[C@@]21C.O [BDP hydrate] | higher stability on prolonged storage than anhydrous BDP | 0.51 | 1.37 | 2.95 | no variation in the thermal behavior | no significant variation of particle size | about 1500 minutes | considerable weight loss due to partial dehydration | 0.51 | 1.35 | 3.17 |  |  |  |  | 
2 | CCC(=O)OCC(=O)[C@@]1(OC(=O)CC)[C@@H](C)C[C@H]2[C@@H]3CCC4=CC(=O)C=C[C@]4(C)[C@@]3(Cl)[C@@H](O)C[C@@]21C [Comparative Example 1] |  |  |  |  |  |  |  |  | 1.26 | 12.58 | 61.27 | up to 150 μm | up to 100 μm | up to 5 μm |  | 
3 | CCC(=O)OCC(=O)[C@@]1(OC(=O)CC)[C@@H](C)C[C@H]2[C@@H]3CCC4=CC(=O)C=C[C@]4(C)[C@@]3(Cl)[C@@H](O)C[C@@]21C [Comparative Example 2] |  |  |  |  |  |  |  |  | 0.84 | 3.58 | 8.76 |  | up to 10 μm | up to 5 μm | > 20 | ~4
4 | CCC(=O)OCC(=O)[C@@]1(OC(=O)CC)[C@@H](C)C[C@H]2[C@@H]3CCC4=CC(=O)C=C[C@]4(C)[C@@]3(Cl)[C@@H](O)C[C@@]21C [anhydrous BDP, anhydrous beclomethasone diproprionate] |  | 0.42 | 1.07 | 2.10 | formation of BDP hydrate | no significant variation of particle size |  | considerable weight changes | 0.43 | 1.10 | 2.24 |  |  |  |  | 
